Assay results from US20150232856A1, “TELOMERASE INHIBITORS FOR USE IN THERAPY” (AGENCY FOR SCIENCE, TECHNOLOGY AND RESEARCH, priority 2012, published 2015).

Test system: NFκB signalling
Test: NFκB signalling immunoblot in telomerase null VA13 cells
Format: cell-based, human
Details: 2 μM MST-312 24 hrs, then 10 ng/ml TNFα time course (FIG. 12A)
Protocol: VA13 cells were treated with 2 μM MST-312 or DMSO for 24 hrs followed by stimulation with 10 ng/ml TNFα for the indicated durations.
A. Phosphorylated and total amounts of proteins were analysed by immunoblotting for the indicated proteins over the time course.
Total protein was extracted with Totex buffer (20 mM Hepes at pH 7.9, 0.35 M NaCl, 20% glycerol, 1% NP-40, 1 mM MgCl2, 0.5 mM EDTA, 0.1 mM EGTA, 50 mM NaF and 0.3 mM NaVO3) containing a mixture of protease inhibitors (Roche). Immunoblotting was performed with specific antibodies and visualized using ECL western blotting detection kit (Amersham Bioscience).

O=C(Nc1cccc(NC(=O)c2cccc(O)c2O)c1)c1cccc(O)c1O [MST-312, N,N′-1,3-Phenylenebis-[2,3-dihydroxy-benzamide]]
p65 phosphorylation or IκBα degradation: No changes
